{
  "source": "patent US20230293551A1",
  "about": "“USE OF OXYGENATED CHOLESTEROL SULFATES FOR TREATING AUTOIMMUNE CONDITIONS” (Durect Corporation, priority 2020, published 2023)",
  "key": {"DNMT1/3a/3b": {"tested_on": "DNMT1/3a/3b", "assay": "Enzyme kinetic study, overall statements on DNMT1/3a/3b activities", "assay_type": "biochemical", "method": "(§3) For the DNMT1 activity assay, the substrate solution, 0.001 mg/ml Poly(dI-dC):Poly(dI-dC) in 50 mM Tris-HCl, pH 7.5, 50 mM NaCl, 5 mM EDTA, 5 mM DTT, 1 mM PMSF, 5% glycerol, 0.01% Brij35, 1% DMSO was used. For the DNMT3a/3b activity assay, 0.0075 mg/ml Lambda DNA in 50 mM Tris-HCl, pH 7.5, 50 mM NaCl, 5 mM EDTA, 5 mM DTT, 1 mM PMSF, 5% glycerol, 1% DMSO, was used. The indicated DNMT1, DNMT3a, or DNMT3b was added to the appropriate substrate solution and gently mixed. […] The mixtures were first incubated for 15 min, then ^3H-SAM was added to the reaction mixture to initiate the reaction, and the mixture was incubated for 60 min at 30° C. Following incubation, the reaction mixture was finally transferred to filter-paper for detection of radioactivity counts."}, "[1]": {"assay": "Metabolite profiling of plasma, urine, feces after intravenous dose", "assay_type": "in vivo, rats", "procedure": "(§1) Nine male Sprague Dawley rats (Group 1) were designated for the pharmacokinetic phase, 3 male Sprague Dawley rats (Group 2) for the excretion mass balance phase, and 7 male Sprague Dawley rats (Group 3) and 9 male Long Evans rats (Group 4) for the tissue distribution phase. All animals received a single intravenous dose of [^14C]-25HC3S at 10 mg/kg and a target radioactivity of 225 µCi/kg. Blood samples were collected from all Group 1 animals at approximately 0.083, 0.25, 0.5, 1, 2, 4, 8, 12, 24, 48, and 72 hours post-dose. Urine and feces were collected from all Group 2 animals periodically through 168 hours post-dose. […] Following blood collection, animals were euthanized by CO2 inhalation and carcasses frozen in a dry ice/hexane bath for processing by quantitative whole body autoradiography. Whole blood, plasma, urine, feces, cage rinse, and cage wash were analyzed for total radioactivity by liquid scintillation counting."}, "[2]": {"assay": "Tissue distribution by quantitative whole body autoradiography after intravenous dose", "assay_type": "in vivo, male Sprague Dawley rats", "conditions": "intravenous 10 mg/kg", "description": "(§2) The objectives of this study were to determine the plasma pharmacokinetics of [4-^14C]-25HC3S-derived radioactivity in male Sprague Dawley rats, determine the routes of elimination and excretion mass balance of [4-^14C]-25HC3S-derived radioactivity in male Sprague Dawley rats, determine the tissue distribution and tissue pharmacokinetics of [4-^14C]-25HC3S-derived radioactivity using quantitative whole body autoradiography methods in male Sprague Dawley and Long Evans rats following a single intravenous (bolus) dose, and to provide plasma, urine, and fecal homogenate samples for metabolite profiling of [4-^14C]-25HC3S-derived radioactivity.\nas §1"}, "[3]": {"assay": "Tissue distribution by quantitative whole body autoradiography after oral dose", "assay_type": "in vivo, male Sprague Dawley rats", "conditions": "oral 75 mg/kg"}, "[4]": {"assay": "Plasma pharmacokinetics of radioactivity after single intravenous dose", "assay_type": "in vivo, male Sprague Dawley rats", "conditions": "single intravenous (bolus) dose 10 mg/kg", "description": "as §2\nas §1, with “µCi/kg.” for “µCi/kg. Blood samples were collected from all Group 1 animals at approximately 0.083, 0.25, 0.5, 1, 2, 4, 8, 12, 24, 48, and 72 hours post-dose. Urine and feces were collected from all Group 2 animals periodically through 168 hours post-dose.”"}, "[5]": {"assay": "Excretion mass balance after single intravenous dose", "assay_type": "in vivo, male Sprague Dawley rats", "conditions": "intravenous 10 mg/kg, over 168 hours", "description": "as §2\nas §1, with “µCi/kg.” for “µCi/kg. Blood samples were collected from all Group 1 animals at approximately 0.083, 0.25, 0.5, 1, 2, 4, 8, 12, 24, 48, and 72 hours post-dose. Urine and feces were collected from all Group 2 animals periodically through 168 hours post-dose.”"}, "[6]": {"assay": "Plasma pharmacokinetics of radioactivity after single oral (gavage) dose", "assay_type": "in vivo, rats", "conditions": "single oral (gavage) dose 75 mg/kg", "procedure": "The terminal elimination phase T½ was 27.3 hours."}, "[7]": {"assay": "Tissue distribution after intravenous dose in pigmented rats", "assay_type": "in vivo, male Long Evans rats", "conditions": "intravenous 10 mg/kg, first 168 hours post-dose", "description": "as §2\nas §1, with “µCi/kg.” for “µCi/kg. Blood samples were collected from all Group 1 animals at approximately 0.083, 0.25, 0.5, 1, 2, 4, 8, 12, 24, 48, and 72 hours post-dose. Urine and feces were collected from all Group 2 animals periodically through 168 hours post-dose.”"}, "DNMT1": {"target": "DNMT1 (Homo sapiens, UniProt P26358)", "sequence (P26358 whole entry, species assumed)": "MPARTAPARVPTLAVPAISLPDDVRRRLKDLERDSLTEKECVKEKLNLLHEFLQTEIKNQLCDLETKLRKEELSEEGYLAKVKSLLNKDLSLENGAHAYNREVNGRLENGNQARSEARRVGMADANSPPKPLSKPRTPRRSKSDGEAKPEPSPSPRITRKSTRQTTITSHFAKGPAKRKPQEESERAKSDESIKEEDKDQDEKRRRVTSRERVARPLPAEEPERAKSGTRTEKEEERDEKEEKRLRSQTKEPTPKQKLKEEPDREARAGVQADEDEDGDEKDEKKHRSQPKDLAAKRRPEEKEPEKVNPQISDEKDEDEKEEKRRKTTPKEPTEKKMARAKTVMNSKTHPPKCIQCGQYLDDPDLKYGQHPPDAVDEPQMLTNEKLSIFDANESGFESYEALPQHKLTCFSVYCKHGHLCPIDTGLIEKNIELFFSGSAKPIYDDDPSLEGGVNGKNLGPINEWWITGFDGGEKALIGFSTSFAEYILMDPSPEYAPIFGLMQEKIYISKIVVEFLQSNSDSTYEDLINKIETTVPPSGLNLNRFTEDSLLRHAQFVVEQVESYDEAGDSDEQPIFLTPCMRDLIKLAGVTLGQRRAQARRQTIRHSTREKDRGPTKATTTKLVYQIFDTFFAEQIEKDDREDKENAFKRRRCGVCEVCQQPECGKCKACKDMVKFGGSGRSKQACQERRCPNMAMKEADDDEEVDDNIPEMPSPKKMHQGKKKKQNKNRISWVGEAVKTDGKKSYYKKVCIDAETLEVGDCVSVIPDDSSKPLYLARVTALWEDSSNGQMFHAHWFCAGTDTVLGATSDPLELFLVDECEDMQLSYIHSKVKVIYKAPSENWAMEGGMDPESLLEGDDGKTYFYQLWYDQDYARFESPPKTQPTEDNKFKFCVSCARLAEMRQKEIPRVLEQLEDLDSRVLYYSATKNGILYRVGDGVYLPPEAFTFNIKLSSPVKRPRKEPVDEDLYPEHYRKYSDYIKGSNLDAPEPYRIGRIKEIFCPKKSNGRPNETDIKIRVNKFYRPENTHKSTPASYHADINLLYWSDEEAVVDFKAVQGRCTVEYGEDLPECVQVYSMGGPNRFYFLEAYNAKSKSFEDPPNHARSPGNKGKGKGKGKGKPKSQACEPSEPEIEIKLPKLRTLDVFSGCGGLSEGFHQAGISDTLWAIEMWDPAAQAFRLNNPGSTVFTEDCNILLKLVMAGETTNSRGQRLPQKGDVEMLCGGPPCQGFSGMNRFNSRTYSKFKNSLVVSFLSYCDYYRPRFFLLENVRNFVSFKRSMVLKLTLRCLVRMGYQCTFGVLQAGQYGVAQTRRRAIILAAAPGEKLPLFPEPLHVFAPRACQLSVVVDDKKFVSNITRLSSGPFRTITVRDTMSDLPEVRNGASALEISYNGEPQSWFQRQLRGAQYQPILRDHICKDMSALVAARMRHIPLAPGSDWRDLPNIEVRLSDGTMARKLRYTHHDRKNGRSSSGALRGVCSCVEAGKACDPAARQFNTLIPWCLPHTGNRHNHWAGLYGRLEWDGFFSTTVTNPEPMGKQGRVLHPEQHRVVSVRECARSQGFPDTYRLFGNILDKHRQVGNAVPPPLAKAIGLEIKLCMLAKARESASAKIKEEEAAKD", "assay": "DNMT1 activity assay (3H-SAM, filter-paper radioactivity)", "assay_type": "biochemical", "method": "as §3"}, "[8]": {"assay": "Metabolite profiling of plasma and feces after oral dose", "assay_type": "in vivo, rats", "conditions": "oral 75 mg/kg", "description": "Radiolabeled components in plasma and feces extracts were profiled and identified using radio-high performance liquid chromatography (HPLC) and high performance liquid chromatography/mass spectrometry (HPLC/MS) methods."}},
  "data": [
    {"compound": "CC(C)CCC[C@@H](C)[C@H]1CC[C@H]2[C@@H]3CC=C4C[C@@H](OS(=O)(=O)O)CC[C@]4(C)[C@H]3CC[C@]12C", "note": "[Xol3S, Cholesterol 3-Sulfate, reference compound]", "values": [
      {"measurement": "effect on enzymatic activities (DNMTs)", "setting": "DNMT1/3a/3b", "value": "did not significantly affect enzymatic activities"}
    ]},
    {"compound": "C[C@H](CCCC(C)(C)O)[C@H]1CC[C@H]2[C@@H]3CC=C4C[C@@H](OS(=O)(=O)O)CC[C@]4(C)[C@H]3CC[C@]12C", "note": "[25HC3S, 25-hydroxycholesterol-3-sulfate]", "values": [
      {"measurement": "effect on enzymatic activities (DNMTs)", "setting": "DNMT1/3a/3b", "value": "potent inhibitors of DNMTs"},
      {"measurement": "IC50", "setting": "DNMT1/3a/3b; DNMT-1, 3a, 3b, read-out: IC50s (kinetic study)", "value": "1 to 10", "unit": "µM"},
      {"measurement": "% of dose in feces", "setting": "[1]; pools 0 to 48 hours postdose", "value": "2 % of dose"},
      {"measurement": "share of the exposure (AUC) to 25HC3S related radioactivity in plasma", "setting": "[1]; up to 1 hour postdose", "value": "approximately 54%"}
    ]},
    {"compound": "C[C@H](CCCC(C)(C)O)[C@H]1CC[C@H]2[C@@H]3CC=C4[14CH2][C@@H](OS(=O)(=O)O)CC[C@]4(C)[C@H]3CC[C@]12C", "note": "[[4-^14C]-25HC3S]", "values": [
      {"measurement": "AUClast in the liver", "setting": "[2]", "value": "≤ 364,000 h.ng/g"},
      {"measurement": "plasma:whole blood AUClast ratio", "setting": "[2]", "value": 0.79},
      {"measurement": "tissue distribution of radioactivity", "setting": "[2]", "value": "broadly distributed and detected by quantitative whole body autoradiography in all tissues except the eye (lens)"},
      {"measurement": "tissue:plasma ratio, liver", "setting": "[2]; calculated using AUClast", "value": 11.4},
      {"measurement": "tissue:plasma ratio, small intestine (wall)", "setting": "[2]; calculated using AUClast", "value": 7.44},
      {"measurement": "Uveal tract and brain concentrations", "setting": "[3]", "value": "approximately 1000 ng equiv./g"},
      {"measurement": "plasma:whole blood AUClast ratio", "setting": "[3]", "value": 1.12},
      {"measurement": "tissue Tmax", "setting": "[3]", "value": "≤ 6", "unit": "hours postdose"},
      {"measurement": "tissue distribution of radioactivity", "setting": "[3]", "value": "broadly distributed and detected by quantitative whole body autoradiography in all tissues except the eye (lens)"},
      {"measurement": "whole blood AUClast", "setting": "[3]", "value": "127,000 h•ng equiv./g"},
      {"measurement": "tissue:plasma ratio, adrenal gland", "setting": "[3]; calculated using AUClast", "value": 6.64},
      {"measurement": "tissue:plasma ratio, liver", "setting": "[3]; calculated using AUClast", "value": 6.96},
      {"measurement": "tissue:plasma ratio, small intestine (wall)", "setting": "[3]; calculated using AUClast", "value": 15.4},
      {"measurement": "terminal elimination phase T½", "setting": "[4]", "value": 26.6, "unit": "h"},
      {"measurement": "recovered radioactivity in feces", "setting": "[5]", "value": 83.0, "unit": "%"},
      {"measurement": "plasma AUClast", "setting": "[6]", "value": "96,400 h•ng equiv./g"},
      {"measurement": "plasma or whole blood concentrations versus Sprague Dawley rats", "setting": "[7]", "value": "no substantial difference in plasma or whole blood concentrations"}
    ]},
    {"compound": "CC(C)CCC[C@@H](C)[C@H]1CC[C@H]2[C@@H]3CC=C4C[C@@H](O)CC[C@]4(C)[C@H]3CC[C@]12C", "note": "[Xol, Cholesterol]", "values": [
      {"measurement": "effect on enzymatic activities (DNMTs)", "setting": "DNMT1/3a/3b", "value": "did not significantly affect enzymatic activities"}
    ]},
    {"compound": "CC(CO)CCC[C@@H](C)[C@H]1CC[C@H]2[C@@H]3CC=C4C[C@@H](OS(=O)(=O)O)CC[C@]4(C)[C@H]3CC[C@]12C", "note": "(stereo partly drawn) [27HC3S, 27-hydroxycholesterol-3-sulfate]", "values": [
      {"measurement": "effect on enzymatic activities (DNMTs)", "setting": "DNMT1/3a/3b", "value": "potent inhibitors of DNMTs"}
    ]},
    {"compound": "C[C@H](CCCC(C)(C)O)[C@H]1CC[C@H]2[C@@H]3CC=C4C[C@@H](O)CC[C@]4(C)[C@H]3CC[C@]12C", "note": "[25HC, 25-Hydroxycholesterol]", "values": [
      {"measurement": "activates DNMT-1 activity", "setting": "DNMT1", "value": 8, "unit": "fold"},
      {"measurement": "detection in plasma, urine, or feces samples", "setting": "[1]", "value": "Neither desmosterol sulfate nor 25-hydroxycholesterol was detected"},
      {"measurement": "relative observed intensity (ROI) in plasma", "setting": "[8]; 2 hour postdose plasma", "value": 37, "unit": "%"},
      {"measurement": "% of total dose in feces", "setting": "[8]; pools 0 to 168 hours postdose", "value": "1.9 % of total dose"}
    ]},
    {"compound": "desmosterol sulfate", "values": [
      {"measurement": "detection in plasma, urine, or feces samples", "setting": "[1]", "value": "Neither desmosterol sulfate nor 25-hydroxycholesterol was detected"}
    ]},
    {"compound": "C[C@@H](CO)CCC[C@@H](C)[C@H]1CC[C@H]2[C@@H]3CC=C4C[C@@H](O)CC[C@]4(C)[C@H]3CC[C@]12C", "note": "[27HC, 27-Hydroxycholesterol, reference compound]", "values": [
      {"measurement": "effect on enzymatic activities (DNMTs)", "setting": "DNMT1/3a/3b", "value": "had no effect on other enzymes"}
    ]}
  ]
}
